Experimental data: patent publication US9364467B2 (Salix Pharmaceuticals, Ltd, priority 2012, dated 2016)
Values after ≈ are worked out from the molar mass of the structure shown.

Test system: Enterobacteriaceae spp. strains
Experiment: In vitro activity (MIC) against Enterobacteriaceae spp. strains

## COC1/C=C/O[C@@]2(C)Oc3c(C)c(O)c4c(O)c(c5c(c4c3C2=O)NC2C=C(C)C=CN52)NC(=O)/C(C)=C\C=C\C(C)C(O)C(C)C(O)C(C)C(O)C1C (some centres unmarked) [25-desacetyl rifaximin]
Klebsiella aerogenes, E. aerogenes 290
  MIC: 128 µg/mL (≈ 172 µM)
Klebsiella aerogenes, E. aerogenes 1023
  MIC: 128 µg/mL (≈ 172 µM)
Klebsiella aerogenes, E. aerogenes 1030
  MIC: 256 µg/mL (≈ 343 µM)
Klebsiella aerogenes, E. aerogenes 1031
  MIC: 128 µg/mL (≈ 172 µM)
Klebsiella oxytoca, K. oxytoca 4
  MIC: 128 µg/mL (≈ 172 µM)
Klebsiella oxytoca, K. oxytoca 18
  MIC: 128 µg/mL (≈ 172 µM)
Klebsiella oxytoca, K. oxytoca 479
  MIC: 128 µg/mL (≈ 172 µM)
Klebsiella oxytoca, K. oxytoca 499
  MIC: 128 µg/mL (≈ 172 µM)
Klebsiella pneumoniae, K. pneumoniae 17
  MIC: 128 µg/mL (≈ 172 µM)
Klebsiella pneumoniae, K. pneumoniae 19
  MIC: 128 µg/mL (≈ 172 µM)
Klebsiella pneumoniae, K. pneumoniae 76
  MIC: 256 µg/mL (≈ 343 µM)
Klebsiella pneumoniae, K. pneumoniae 80
  MIC: 128 µg/mL (≈ 172 µM)
Klebsiella pneumoniae, K. pneumoniae 91
  MIC: 128 µg/mL (≈ 172 µM)
Klebsiella pneumoniae, K. pneumoniae 1064
  MIC: 128 µg/mL (≈ 172 µM)
Morganella morganii, M. morganii 42
  MIC: 128 µg/mL (≈ 172 µM)
Morganella morganii, M. morganii 48
  MIC: 128 µg/mL (≈ 172 µM)
Morganella morganii, M. morganii 50
  MIC: 128 µg/mL (≈ 172 µM)
Morganella morganii, M. morganii 57
  MIC: 256 µg/mL (≈ 343 µM)
Morganella morganii, M. morganii 67
  MIC: 256 µg/mL (≈ 343 µM)
Morganella morganii, M. morganii 101
  MIC: 128 µg/mL (≈ 172 µM)
Morganella morganii, M. morganii 105
  MIC: 128 µg/mL (≈ 172 µM)
Morganella morganii, M. morganii 108
  MIC: 128 µg/mL (≈ 172 µM)
Morganella morganii, M. morganii 453
  MIC: 128 µg/mL (≈ 172 µM)
Morganella morganii, M. morganii 458
  MIC: 256 µg/mL (≈ 343 µM)
Morganella morganii, M. morganii 461
  MIC: 128 µg/mL (≈ 172 µM)
Morganella morganii, M. morganii 462
  MIC: 128 µg/mL (≈ 172 µM)
Morganella morganii, M. morganii 923
  MIC: 128 µg/mL (≈ 172 µM)
Morganella morganii, M. morganii 932
  MIC: 128 µg/mL (≈ 172 µM)
Morganella morganii, M. morganii 935
  MIC: 256 µg/mL (≈ 343 µM)
Morganella morganii, M. morganii 1006
  MIC: 128 µg/mL (≈ 172 µM)
Proteus mirabilis, P. mirabilis 465
  MIC: 128 µg/mL (≈ 172 µM)
Proteus mirabilis, P. mirabilis 466
  MIC: 128 µg/mL (≈ 172 µM)
Proteus mirabilis, P. mirabilis 469
  MIC: 128 µg/mL (≈ 172 µM)
Proteus mirabilis, P. mirabilis 470
  MIC: 128 µg/mL (≈ 172 µM)
Proteus mirabilis, P. mirabilis 471
  MIC: 256 µg/mL (≈ 343 µM)
Proteus mirabilis, P. mirabilis 472
  MIC: 128 µg/mL (≈ 172 µM)
Proteus mirabilis, P. mirabilis 473
  MIC: 128 µg/mL (≈ 172 µM)
Proteus mirabilis, P. mirabilis 477
  MIC: 128 µg/mL (≈ 172 µM)
Proteus mirabilis, P. mirabilis 479
  MIC: 128 µg/mL (≈ 172 µM)
Proteus mirabilis, P. mirabilis 480
  MIC: 256 µg/mL (≈ 343 µM)
Proteus mirabilis, P. mirabilis 489
  MIC: 128 µg/mL (≈ 172 µM)
Proteus mirabilis, P. mirabilis 928
  MIC: 128 µg/mL (≈ 172 µM)
Proteus mirabilis, P. mirabilis 972
  MIC: 128 µg/mL (≈ 172 µM)
Proteus mirabilis, P. mirabilis 983
  MIC: 128 µg/mL (≈ 172 µM)
Proteus mirabilis, P. mirabilis 985
  MIC: 256 µg/mL (≈ 343 µM)
Proteus mirabilis, P. mirabilis 987
  MIC: 128 µg/mL (≈ 172 µM)
Proteus mirabilis, P. mirabilis 988
  MIC: 128 µg/mL (≈ 172 µM)
Proteus mirabilis, P. mirabilis 990
  MIC: 128 µg/mL (≈ 172 µM)
Proteus mirabilis, P. mirabilis 991
  MIC: 128 µg/mL (≈ 172 µM)
Proteus mirabilis, P. mirabilis 993
  MIC: 128 µg/mL (≈ 172 µM)
Proteus mirabilis, P. mirabilis 995
  MIC: 128 µg/mL (≈ 172 µM)
Proteus mirabilis, P. mirabilis 996
  MIC: 128 µg/mL (≈ 172 µM)
Proteus mirabilis, P. mirabilis 997
  MIC: 128 µg/mL (≈ 172 µM)
Proteus mirabilis, P. mirabilis 998
  MIC: 256 µg/mL (≈ 343 µM)
Providencia stuartii, P. stuartii 94
  MIC: 128 µg/mL (≈ 172 µM)
Providencia stuartii, P. stuartii 299
  MIC: 128 µg/mL (≈ 172 µM)
Providencia stuartii, P. stuartii 301
  MIC: 128 µg/mL (≈ 172 µM)
Providencia stuartii, P. stuartii 306
  MIC: 256 µg/mL (≈ 343 µM)
Providencia stuartii, P. stuartii 312
  MIC: 128 µg/mL (≈ 172 µM)
Providencia stuartii, P. stuartii 459
  MIC: 128 µg/mL (≈ 172 µM)
S. liquefaciens 55
  MIC: 256 µg/mL (≈ 343 µM)
S. odorifera 59
  MIC: 128 µg/mL (≈ 172 µM)
Serratia marcescens, S. marcescens 38
  MIC: 128 µg/mL (≈ 172 µM)
Serratia marcescens, S. marcescens 45
  MIC: 128 µg/mL (≈ 172 µM)
Serratia marcescens, S. marcescens 59
  MIC: 128 µg/mL (≈ 172 µM)
Serratia marcescens, S. marcescens 63
  MIC: 256 µg/mL (≈ 343 µM)
Stenotrophomonas maltophilia, S. maltophilia 1203
  MIC: 128 µg/mL (≈ 172 µM)
Stenotrophomonas maltophilia, S. maltophilia 1208
  MIC: 128 µg/mL (≈ 172 µM)
